Biological target: IDH1^R132C (Homo sapiens, UniProt O75874, R132C)
Assay: NADPH depletion assay (diaphorase/resazurin), IDH1 R132C
Assay type: biochemical
Conditions: IDH1^R132C 2 nM, alpha-ketoglutarate 0.14 mM; read-out: IDH1^R132C IC50
Protocol: IDH mutated enzyme activity converting alpha-ketoglutarate to 2-hydroxyglutaric acid is measured using a NADPH depletion assay. In the assay the remaining cofactor is measured at the end of the reaction with the addition of a catalytic excess of diaphorase and resazurin, to generate a fluorescent signal in proportion to the amount of NADPH remaining. IDH1 WT enzyme as well as mutated isoforms IDH1^R132H, IDH1^R132C, and IDH2^R172K enzymes are commercially available proteins (see e.g. Sino Biological, Abcam, Active Motif or Creative BioMart).
IDH1^R132H homodimer enzyme are diluted to 8 nM, in 10 μL of Assay Buffer (150 mM NaCl, 50 mM Tris-HCl pH 7.6, 10 mM MgCl2, 0.001% Triton X-100, 4 mM β-mercaptoethanol); 0.2 μL of test compound, previously serially diluted 1 to 3, >10 experimental points from 1 mM in DMSO, is added and the mixture is incubated for 15 minutes at room temperature. The reaction is started with the addition of 10 μL of Substrate Mix (12 μM NADPH, 3.4 mM alpha-ketoglutarate in Assay Buffer) and the mixture is incubated for 60 minutes at room temperature. The reaction is terminated with the addition of 5 μl of Detection Buffer (100 μg/mL diaphorase, 30 μM resazurin, in IX Assay Buffer), and is incubated for 15 minutes before reading on a ViewLux as platereader at Ex544/Em590.
Compounds are assayed for their activity against IDH1^R132C following the same assay as above with the following modifications: IDH1^R132C and alpha-ketoglutarate final concentrations in the Assay Buffer is 2 nM and 0.14 mM, respectively.

Sequence of IDH1^R132C (O75874 whole entry R132C): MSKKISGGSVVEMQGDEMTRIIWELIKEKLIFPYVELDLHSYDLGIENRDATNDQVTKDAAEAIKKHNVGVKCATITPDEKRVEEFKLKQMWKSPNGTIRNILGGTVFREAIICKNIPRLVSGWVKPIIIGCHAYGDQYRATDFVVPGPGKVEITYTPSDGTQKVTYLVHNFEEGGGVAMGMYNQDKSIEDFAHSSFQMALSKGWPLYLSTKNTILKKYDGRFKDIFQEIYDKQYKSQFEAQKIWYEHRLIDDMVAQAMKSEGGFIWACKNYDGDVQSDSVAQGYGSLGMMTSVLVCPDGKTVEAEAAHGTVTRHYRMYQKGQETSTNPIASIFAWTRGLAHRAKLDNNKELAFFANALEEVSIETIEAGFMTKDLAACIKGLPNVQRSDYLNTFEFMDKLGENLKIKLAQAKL

| Structure (SMILES) | IC50 |
| --- | --- |
| CC#CC(=O)N1CCN(C2(c3ccc([C@H](C)Nc4ncc5ccc(=O)n(C(C)C)c5n4)cc3)CCOCC2)CC1 [cpd 5, 2-{[(1S)-1-(4-{4-[4-(but-2-ynoyl)piperazin-1-yl]tetrahydro-2H-pyran-4-yl}phenyl)ethyl]amino}-8-(propan-2-yl)pyrido[2,3-d]pyrimidin-7(8H)-one] | 1.47 µM |
| C=CC(=O)N1CCN(C2(c3ccc([C@H](C)Nc4nc(C)c5ccc(=O)n(C(C)C)c5n4)cc3)CCOCC2)CC1 [cpd 13, 2-{[(1S)-1-{4-[4-(4-acryloylpiperazin-1-yl)tetrahydro-2H-pyran-4-yl]phenyl}ethyl]amino}-4-methyl-8-(propan-2-yl) pyrido[2,3-d]pyrimidin-7(8H)-one] | 0.0538 µM |
| C=C(C)C(=O)N1CCN(C2(c3ccc([C@H](C)Nc4ncc5ccc(=O)n(C(C)C)c5n4)cc3)CCOCC2)CC1 [cpd 21, 2-{[(1S)-1-(4-{4-[4-(2-methylacryloyl)piperazin-1-yl]tetrahydro-2H-pyran-4-yl}phenyl)ethyl]amino}-8-(propan-2-yl) pyrido[2,3-d]pyrimidin-7(8H)-one] | 0.904 µM |
| C=CC(=O)N1CCN(C2(c3ccc(CNc4ncc5ccc(=O)n(C(C)C)c5n4)cc3)CCOCC2)CC1 [cpd 31, 2-({4-[4-(4-acryloylpiperazin-1-yl)tetrahydro-2H-pyran-4-yl]benzyl}amino)-8-(propan-2-yl)pyrido[2,3-d]pyrimidin-7(8H)-one] | 0.332 µM |
| C=CC(=O)N1CCN(C2(c3ccc([C@H](C)Nc4ncc5ccc(=O)n(C(CC)CC)c5n4)cc3)CCOCC2)CC1 [cpd 35, 2-{[(1S)-1-{4-[4-(4-acryloylpiperazin-1-yl)tetrahydro-2H-pyran-4-yl]phenyl}ethyl]amino}-8-(pentan-3-yl)pyrido[2,3-d]pyrimidin-7(8H)-one] | 0.004 µM |
| C=CC(=O)N1CCN(C2(c3ccc([C@H](C)Nc4nc(NC)c5ccc(=O)n(C(C)C)c5n4)cc3)CCOCC2)CC1 [cpd 37, 2-{[(1S)-1-{4-[4-(4-acryloylpiperazin-1-yl)tetrahydro-2H-pyran-4-yl]phenyl}ethyl]amino}-4-(methylamino)-8-(propan-2-yl)pyrido[2,3-d]pyrimidin-7(8H)-one] | 0.991 µM |
| CCN1CCN(C2(c3ccc([C@H](C)Nc4ncc5c(n4)N(CC)C(=O)OC5)cc3)CCOCC2)CC1 [cpd 45, 7-{[(1S)-1-{4-[4-(4-ethylpiperazin-1-yl)tetrahydro-2H-pyran-4-yl]phenyl}ethyl]amino}-1-ethyl-1,4-dihydro-2H-pyrimido[4,5-d][1,3]oxazin-2-one] | 1.06 µM |

The remaining compounds from weak to strong by IC50, led by results:

| IC50 | Structure (SMILES) |
| --- | --- |
| 0.988 µM | C=CC(=O)N1CCN(C2(c3ccc([C@H](C)Nc4nc(N(C)C)c5ccc(=O)n(C(C)C)c5n4)cc3)CCOCC2)CC1 [cpd 36, 2-{[(1S)-1-{4-[4-(4-acryloylpiperazin-1-yl)tetrahydro-2H-pyran-4-yl]phenyl}ethyl]amino}-4-(dimethylamino)-8-(propan-2-yl)pyrido[2,3-d]pyrimidin-7(8H)-one] |
| 0.098 µM | C=CC(=O)N1CCN(C2(c3ccc([C@H](C)Nc4ncc5ccc(=O)n(C(C)C)c5n4)nc3)CCOCC2)CC1 [cpd 27, 2-{[(1S)-1-{5-[4-(4-acryloylpiperazin-1-yl)tetrahydro-2H-pyran-4-yl]pyridin-2-yl}ethyl]amino}-8-(propan-2-yl)pyrido[2,3-d]pyrimidin-7(8H)-one] |
| 0.064 µM | C=CC(=O)N1CCN(C2(c3ccc([C@H](C)Nc4ncc5ccc(=O)n(C(C)C)c5n4)cc3)CCN(C)CC2)CC1 [cpd 32, 2-{[(1S)-1-{4-[4-(4-acryloylpiperazin-1-yl)-1-methylpiperidin-4-yl]phenyl}ethyl]amino}-8-(propan-2-yl)pyrido[2,3-d]pyrimidin-7(8H)-one] |
| 0.024 µM | C=CC(=O)N1CCN(C2(c3ccc([C@H](C)Nc4ncc5c(C)cc(=O)n(C(C)C)c5n4)cc3)CCOCC2)CC1 [cpd 18, 2-{[(1S)-1-{4-[4-(4-acryloylpiperazin-1-yl)tetrahydro-2H-pyran-4-yl]phenyl}ethyl]amino}-5-methyl-8-(propan-2-yl) pyrido[2,3-d]pyrimidin-7(8H)-one] |

From patent US12521395B2, “Gem-disubstituted heterocyclic compounds and their use as IDH inhibitors” (NERVIANO MEDICAL SCIENCES S.R.L., priority 2019, dated 2026)
